The values that follow come from ChEMBL document CHEMBL1155245, “Diazen-1-ium-1,2-diolated nitric oxide donor ester prodrugs of 5-(4-carboxymethylphenyl)-1-(4-methanesulfonylphenyl)-3-trifluoromethyl-1H-pyrazole and its aminosulfonyl analog: Synthesis, biological evaluation and nitric oxide release studies” (Bioorg Med Chem, 2009).

A short description of series [1]: Induction of nitric oxide release in phosphate buffer at pH 7.4. In kind it is physicochemical.
The test system of a further series is Serum. The experiment in a line: Induction of nitric oxide release in rat serum containing phosphate buffer at pH 7.4. The format is functional. Also noted: concentration or dose not given beside the values.
Series [2] is filed under the species Rattus norvegicus. Description: animal or person. In kind it is functional. The note with it: 3 h.
Series [3] addresses T1, Prostaglandin G/H synthase 1 (Ovis aries, UniProt P05979).
T1 sequence (P05979 whole entry): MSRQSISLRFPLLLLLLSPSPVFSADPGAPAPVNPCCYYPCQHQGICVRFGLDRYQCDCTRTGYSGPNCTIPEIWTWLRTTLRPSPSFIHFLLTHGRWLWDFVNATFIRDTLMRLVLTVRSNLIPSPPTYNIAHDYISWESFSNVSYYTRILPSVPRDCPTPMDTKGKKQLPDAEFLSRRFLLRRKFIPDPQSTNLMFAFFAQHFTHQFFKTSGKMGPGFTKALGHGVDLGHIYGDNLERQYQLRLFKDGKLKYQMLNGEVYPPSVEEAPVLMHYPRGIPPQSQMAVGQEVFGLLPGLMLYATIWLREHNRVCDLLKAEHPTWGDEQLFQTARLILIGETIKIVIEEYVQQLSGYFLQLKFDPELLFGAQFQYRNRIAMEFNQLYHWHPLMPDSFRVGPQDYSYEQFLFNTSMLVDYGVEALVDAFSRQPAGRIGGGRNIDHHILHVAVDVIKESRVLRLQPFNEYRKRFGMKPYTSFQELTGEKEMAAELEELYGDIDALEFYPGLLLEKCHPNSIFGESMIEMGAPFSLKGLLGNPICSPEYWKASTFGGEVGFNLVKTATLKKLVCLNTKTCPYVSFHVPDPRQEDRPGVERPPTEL
Description: Inhibition of ovine COX1 by enzyme immunoassay

Series [4] can be described thus: Selectivity ratio of IC50 for ovine COX1 to IC50 for human COX2.
For series [5], the system named is Rattus norvegicus. The experiment in a line: Antiinflammatory activity in po dosed rat assessed as inhibition of carrageenan-induced paw edema after 3 hrs. In kind it is functional. For orientation: The carrageenan paw model is a standard test of acute inflammation.

On to `CN(CCO)/[N+]([O-])=N\O`, for which the values for the Activity (in series [1]; with Serum) were 84.5% and 84.8%, respectively.
As to `CC(=O)OCO/N=[N+](\[O-])N(C)CCOC(=O)Cc1ccc(-c2cc(C(F)(F)F)nn2-c2ccc(S(N)(=O)=O)cc2)cc1`, the Activity is 7.2% in series [1] and 74.6% in the series on Serum. For the same compound, the inhibition in vivo – broadly, the drop in the measured response relative to a control, in per cent – at 113.8 µmol/kg in the series listed under Rattus norvegicus [2] was 55.8%. It took 35.4 µM to reach half-maximal inhibition in series [3] (IC50).
As to `CC(=O)OCO/N=[N+](\[O-])N1CCC[C@H]1COC(=O)Cc1ccc(-c2cc(C(F)(F)F)nn2-c2ccc(S(N)(=O)=O)cc2)cc1`, the Activity in series [1] was found to be 5.4%; with Serum, 59.6%. In series [4], the Ratio IC50 amounted to 14.4. The compound further showed an inhibition in vivo at 113.8 µmol/kg in the series filed under Rattus norvegicus [2] of 46.5%. For the same compound, inhibition in series [3] was half-maximal at 13.4 µM (IC50).
In the case of `CC(=O)OCO/N=[N+](\[O-])N1CCC[C@H]1COC(=O)Cc1ccc(-c2cc(C(F)(F)F)nn2-c2ccc(S(C)(=O)=O)cc2)cc1`, the Activity in series [1] was determined as 5%; in the series on Serum, 62.9%. Inhibition in series [3] was half-maximal at 11.8 µM (IC50).
The corresponding values for `CC(=O)OCO/N=[N+](\[O-])N(C)CCOC(=O)Cc1ccc(-c2cc(C(F)(F)F)nn2-c2ccc(S(C)(=O)=O)cc2)cc1` are 6.9%, 72.2% and 8.2 µM.
Take `NS(=O)(=O)c1ccc(-n2nc(C(F)(F)F)cc2-c2ccc(CC(=O)O)cc2)cc1`: in the series with Rattus norvegicus [5], the 50% effective dose (ED50) (usually the dose that gives a 50% effect, or the effect in half of the subjects) was found to be 114 µmol/kg. The same compound gave an inhibition in vivo at 113.8 µmol/kg in the series filed under Rattus norvegicus [2] of 50%. Also, the IC50 (commonly the midpoint of a concentration-inhibition curve) in series [3] was found to be 8.1 µM.
With `CC(=O)Oc1ccccc1C(=O)O` [ASPIRIN], the ED50 in the series on Rattus norvegicus [5] came out at 714 µmol/kg.
Consider `[O-]/[N+](=N\O)N1CCC[C@H]1CO`, for which the Activity is 84.5% in series [1] and 85% in the series on Serum.
For `CS(=O)(=O)c1ccc(-n2nc(C(F)(F)F)cc2-c2ccc(CC(=O)O)cc2)cc1`, the 50% effective dose (ED50) in the series on Rattus norvegicus [5] was determined as 216 µmol/kg. The IC50 in series [3] stood at 65.2 µM.
